How the values were obtained:
[1] = tested on: c-myc, cyclin D1, activated caspase-3 and cleaved PARP-1 in MyLa cells; assay: Western blot of marker proteins with anti-oxidants or H2O2; type: cell-based, human; details: for effect of anti-oxidant on NEO212-induced marker changes: 200 and 500 μM AA or 100 and 300 μM b-ME before 80 μM NEO212, 48 hours
From the text: 2. Material and methods 2.1. […] 2.2. […] 2.3. […] 2.4.

[2] = tested on: USC-04 glioma cancer stem cells; assay: MTT cytotoxicity assay, USC-04; type: cell-based; details: USC-04; TMZ 0-400 uM, POH 0-2 mM
From the text: (§1) Cancer Lett. 2011 Mar. 28; 302(2):100-8.

[3] = tested on: USC-02 glioma cancer stem cells; assay: MTT cytotoxicity assay, USC-02; type: cell-based; details: USC-02; TMZ 0-400 uM, POH 0-2 mM
From the text: as §1

[4] = tested on: TMZ sensitive (U251) cells; assay: Colony forming assay, TMZ sensitive U251; type: cell-based, human
Experimental: (§2) Colony forming assays were carried out after cells were treated with TMZ alone, POH alone, and the TMZ-POH conjugate. […] Cancer Lett. 2011 Mar. 28; 302(2):100-8.

[5] = tested on: glioblastoma, breast cancer, or melanoma cell lines; details: various in vitro cytotoxicity assays; cited from earlier work
[6] = tested on: TMZ resistant (U251TR) U251 cells; assay: Colony forming assay, TMZ resistant U251TR; type: cell-based, human
Experimental: as §2

HUT102 cells = assay: MTT cell viability assay, HUT102 (Example 15); type: cell-based, human; details: HUT102, 72 hours
From the text: (§3) 2. Material and methods 2.1. […] 2.2. […] 2.3. […] 2.4. […] 2.5.

[7] = tested on: U87, A172 and U251 human glioma cells; assay: MTT cytotoxicity assay on human malignant glioma cells; type: cell-based
From the text: In vitro efficacy of the present composition can be determined using methods well known in the art. For example, the cytotoxicity of the present monoterpene (or sesquiterpene) and/or the therapeutic agents may be studied by MTT [3-(4,5-dimethylthiazol-2-yl)-2,5-diphenyl tetrazolium bromide] cytotoxicity assay. MTT assay is based on the principle of uptake of MTT, a tetrazolium salt, by metabolically active cells where it is metabolized into a blue colored formazon product, which can be read spectrometrically. J. of Immunological Methods 65: 55 63, 1983. The cytotoxicity of the present monoterpene (or sesquiterpene) derivative and/or the therapeutic agents may be studied by colony formation assay. Functional assays for inhibition of VEGF secretion and IL-8 secretion may be performed via ELISA. Cell cycle block by the present monoterpene (or sesquiterpene) derivative and/or the therapeutic agents may be studied by standard propidium iodide (PI) staining and flow cytometry. Invasion inhibition may be studied by Boyden chambers. In this assay a layer of reconstituted basement membrane, Matrigel, is coated onto chemotaxis filters and acts as a barrier to the migration of cells in the Boyden chambers. Only cells with invasive capacity can cross the Matrigel barrier. Other assays include, but are not limited to cell viability assays, apoptosis assays, and morphological assays.
Then U87, A172 and U251 cells were treated with dimethyl celecoxib bisPOH carbamate (POH-DMC) (e.g., synthesized by the method in Example 1), and the MTT cytotoxicity assays performed (FIG. 2).
Then TMZ-resistant glioma cell lines U87, A172 and U251 cells were treated with temozolomide POH carbamate (POH-TMZ) (e.g., synthesized by the method in Example 3).

HUT78 cells [8] = assay: MTT cell viability assay, HUT78 (Example 15)
Experimental: Pharmacological agents—NEO212 was dissolved in DMSO at 100 mM. TMZ was purchased from Sigma Aldrich (St. Louis, Mo.) and dissolved in DMSO (Santa Cruz Biotechnology, Dallas, Tex.) to a concentration of 50 mM. POH was purchased from Sigma-Aldrich and diluted in DMSO to 100 mM. […] Stock solutions of all drugs were stored at −20° C. Staurosporine (STSP) was purchased from Selleck Chemicals (Houston, Tex.), stored at 4° C. protected from light, and dissolved in DMSO before use. Ascorbic acid (AA) and beta-mercaptoethanol (b-ME) (Sigma Aldrich) were prepared fresh before use. Crystalline AA was dissolved in phosphate-buffered saline (PBS) to 25 mM; b-ME was diluted in medium to 25 mM. […] Cell lines—Three different human CTLC cell lines were used. […] Both media also contained 100 U/mL penicillin and 0.1 mg/mL streptomycin. Penicillin, streptomycin, and RPMI (prepared with raw materials from Cellgro/MediaTech, Manassas, Va.) were provided by the Cell Culture Core lab of the USC/Norris Comprehensive Cancer Center. […] Cells were kept in a humidified incubator at 37° C. and a 5% CO2 atmosphere. FBS was obtained from Omega Scientific (Tarzana, Calif.) and from X&Y Cell Culture (Kansas City, Mo.). […] MTT assay—Methylthiazoletetrazolium (MTT) assays were performed as follows. Cells were seeded into 96-well plates in a volume of 50 μL per well at 3.0-5.0×10^5 cells/mL. An additional 50 μL of medium containing various concentrations of drug (or vehicle) was added and the cells were incubated for different lengths of time. This was followed by the addition of 10 μL thiazolyl-blue tetrazolium (i.e., MTT; Sigma Aldrich) from a stock solution of 5 mg/mL in phosphate-buffered saline (PBS). Cells were returned to the incubator for 4 hours. Thereafter, the reaction was stopped and the cells were lysed by the addition of 100 μL solubilization solution (10% sodium dodecyl sulfate in 0.01 M hydrochloric acid). The 96-well plate was left in the cell culture incubator over night for complete solubilization of the MTT crystals, and the optical density (OD) of each well was determined the next day in an ELISA plate reader at 560 nm. The background value (=OD of control wells containing medium without cells+MTT+solubilization solution) was subtracted from all measured values. In individual experiments, each treatment condition was set up in quadruplicate, and each experiment was repeated several times independently. […] Cell proliferation analysis—Cell proliferation was assessed by counting cells over time. Independent cell cultures were exposed to different concentrations of NEO212. At different times, aliquots of cells were removed, mixed with Trypan blue, and counted in a hemocytometer. Blue cells were considered dead, whereas unstained cells were counted as live cells. […] Fluorescence-activated cell sorting (FACS) analysis—Cells were seeded in 6-well tissue culture plates at 2×10^5 cells/mL, followed by drug treatment. After 72 hours, cells were collected, washed twice with PBS, transferred to a microcentrifuge tube, and suspended in 200 μL of 1× binding buffer solution, which was made fresh from 10x binding buffer (0.2 μm sterile-filtered 0.1 M HEPES, pH 7.4; 1.4 M NaCl; 25 mM CaCl2)). Then 1 μL of a 1 mg/mL 7-amino-actinomycin D (7-AAD) solution (Thermo Fisher Scientific, Waltham, Mass.) was added. After 20 minutes of incubation on ice, cell fluorescence was analyzed on a FACSAria Flow Cytometer (Becton Dickinson Biosciences Ltd., Franklin Lakes, N.J.).

HuT 78 cells = assay: MTT assay on HuT 78 cells (Example 14); details: HuT 78, 72 hours
Experimental: HuT 78 cells are cutaneous T lymphocytes derived from a patient with Sézary syndrome.
HuT 78 cells were treated in vitro with (i) temozolomide (50, 100, 250 μM), (ii) POH-TMZ conjugate (“NEO212”, 25, 50, 100 μM), (iii) NEO412 which is the triple conjugate of temozolomide (TMZ), perillyl alcohol (POH), and linoleic acid (25, 50, 100, 250 μM), or (iv) vehicle alone. Seventy-two hours after the addition of drugs or vehicle, cell viability was determined by standard MTT (methylthiazoletetrazolium) assay.

HUT78 cells [9] = assay: FACS analysis of cell death with 7-AAD; type: cell-based, human; details: HUT78, highest concentration 300, 72 hours
From the text: as §3

[10] = cancer patients; cited from earlier work
MyLa cells = assay: MTT cell viability assay, MyLa (Example 15); type: cell-based, human; details: Homo sapiens, 72 hours
From the text: as §3

U251 human glioma cells = assay: MTT assay, rolipram vs POH-Rolipram, U251; type: cell-based; details: for IC50: 48 hours, MTT
Experimental: (§4) To compare the cytotoxicity of Rolipram POH Carbamate (POH-Rolipram) (e.g., synthesized by the method in Example 5) with rolipram, a […] inducing differentiation and apoptosis in glioma cells, A172, U87, U251 and LN229 human glioma cells were treated with either POH-Rolipram or rolipram for 48 hours. […] In the presence of POH-rolipram, IC50 is achieved at concentrations as low as 50 uM. […] IC50 is not met at 1000 uM. […] POH-rolipram achieves IC50 at 50 uM, with almost 100% cytoxicity at 100 uM. […] On the other hand, IC50 for POH-rolipram is achieved at 100 uM, with almost 100% cytotoxicity at […].

A172 human glioma cells = assay: MTT assay, rolipram vs POH-Rolipram, A172; type: cell-based; details: A-172 cells, 48 hours
Experimental: as §4

LN229 human glioma cells = assay: MTT assay, rolipram vs POH-Rolipram, LN229; type: cell-based; details: for IC50: MTT
Experimental: as §4

U87 human glioma cells = assay: MTT assay, rolipram vs POH-Rolipram, U87; type: cell-based; details: U-87 cells, 48 hours
Experimental: as §4

[11] = tested on: subcutaneous U-87 gliomas; assay: Nude mouse subcutaneous glioma model, tumor growth inhibition; type: in vivo, nude mice; details: local application via Q-tip, 1 cc/application/day, 8 weeks; growth over 60 days
Experimental: Inhibition of tumor growth by butyryl-POH was studied in a nude mouse subcutaneous glioma model. Mice were injected with U-87 glioma cells (500,000 cells/injection) and allowed to form a palpable nodule over two weeks. Once palpable nodule was formed, the mice were treated with local application of various compounds as indicated in FIGS. 9A and 9B via a Q-tip (1 cc/application/day) over a period of 8 weeks.

With `OO` [H2O2, hydrogen peroxide] the “effect on proliferation and apoptosis markers” value ([1]; 200 μM H2O2, 48 hours) was “clear down-regulation of c-myc and cyclin D1 proteins, along with strong activation of caspase-3 and cleavage of PARP-1”.

With `C=C(C)[C@@H]1CC=C(CO)CC1` [POH, perillyl alcohol, reference compound] the “cytotoxicity in MTT assay” value [2] was “demonstrated cytotoxicity”, the “cytotoxicity in MTT assay” value [3] was “demonstrated cytotoxicity” and the “cytotoxicity in colony forming assay” value [4] was “demonstrated cytotoxicity”. The IC50 [5] was 700 to 1800 µM, the “cytotoxicity in colony forming assay” value [6] was “demonstrated cytotoxicity” and the “activity on viability in MTT assay” value (HUT102 cells; up to 300 μM) was “very minimal activity”.

For `Cn1nnc2c(C(N)=O)ncn2c1=O` [TMZ, temozolomide, reference compound], the “cytotoxicity in MTT assay” value [7] was “minimal cytotoxicity”, the reduction of viability (HUT78 cells [8]; HUT78, 100 μM) was “about 30%” and the IC50 (HUT78 cells [8]; HUT78, 72 hours) was over 300 µM. For the same compound, the “cytotoxicity in MTT assay” value [2] was “did not induce significant cytotoxicity”, the “cytotoxicity in MTT assay” value [3] was “did not induce significant cytotoxicity” and the “cytotoxicity in colony forming assay” value [4] was “demonstrated cytotoxicity”. The “cytotoxic effect on MF cells in MTT assay” value (HuT 78 cells) was “does not show much cytotoxicity”, the “cytotoxicity in colony forming assay” value [6] was “minimal cytotoxicity” and the cell death (HUT78 cells [9]) was 26%. The IC50 (HUT102 cells; Homo sapiens, HuT-102) was 6 to 8 µM, the peak plasma levels [10] was 50 to 70 µM and the IC50 (MyLa cells) was over 300 µM.

With `OCCS` [b-ME, beta-mercaptoethanol] the “effect of anti-oxidant on NEO212-induced marker changes” value [1] was “prevented the anticancer impact of NEO212”.

With `C=C(C)C1CC=C(COC(=O)N(C(=O)OCC2=CCC(C(=C)C)CC2)S(=O)(=O)c2ccc(-n3nc(C(F)(F)F)cc3-c3cc(C)ccc3C)cc2)CC1` (stereo not shown) [POH-DMC] the “cytotoxicity in MTT assay” value [7] was “much better cytotoxicity than DMC alone”.

Compound `C=C(C)C1CC=C(COC(=O)N2CC(c3ccc(OC)c(OC4CCCC4)c3)CC2=O)CC1` (stereo not shown) [POH-rolipram, 4-(3-cyclopentyloxy-4-methoxyphenyl)-2-oxo-pyrrolidine-1-carboxylic acid 4-isopropenyl cyclohex-1-enylmethyl ester] has an IC50 (U251 human glioma cells; U251 cells) of 50 µM, a cytotoxicity (U251 human glioma cells; U251 cells, at 100 uM) of about 100% and an IC50 (A172 human glioma cells) of 50 µM. The IC50 (LN229 human glioma cells; 48 hours) was 100 µM, the cytotoxicity (LN229 human glioma cells; at 10 uM) was about 100% and the IC50 (U87 human glioma cells) was 180 µM.

Work on `COc1ccc(C2CNC(=O)C2)cc1OC1CCCC1` (stereo not shown) [rolipram, reference compound] yielded an IC50 (U251 human glioma cells; Homo sapiens, U-251, U251 cells) of 170 µM, a plateau cytotoxicity (U251 human glioma cells; human, 48 h) of 60% and an IC50 (A172 human glioma cells; Homo sapiens) of about 1000 µM. For the same compound, the IC50 (LN229 human glioma cells; Homo sapiens, LN-229, 48 hours) was over 100 µM and the IC50 (U87 human glioma cells; Homo sapiens, U-87 MG) was over 1000 µM.

For `O=C1O[C@H]([C@@H](O)CO)C(O)=C1O` [AA, ascorbic acid], the “effect of anti-oxidant on NEO212-induced marker changes” value [1] was “prevented the anticancer impact of NEO212”.

For `C=C(C)C1CC=C(COC(=O)CCC)CC1` (stereo not shown) [Butyryl-POH], the “inhibition of tumor growth” value [11] was “greatest inhibition of tumor growth”.

— patent US20220378780A1, “PHARMACEUTICAL COMPOSITIONS COMPRISING POH DERIVATIVES” (NeOnc Technologies, Inc., priority 2019, published 2022)
